Assays:
Assay type in all cases: cell-based, mouse
[1] = tested on: CD8+ T cells from OT-I transgenic mice; test: Proliferation of CFSE-stained OT-I CD8+ T cells co-cultured with OVA peptide-treated spleen dendritic cells; conditions: LPS-stimulated dendritic cells, co-culture 1:20, 4 days
Protocol: The spleen dendritic cells (2×10^6/mL) were self-activated in a 96-well plate for 24 hours, or self-activation was inhibited by adding a linker peptide, and then either not treated with LPS or stimulated with LPS for 24 hours. Dendritic cells were cultured with 10 μM ovalbumin (OVA) peptide SIINFEKL (InvivoGen, San Diego, California, USA) for 1 hour. CD8^+ T cells were isolated from OT-I transgenic mice using a CD8 T cell isolation kit (Miltenyi Biotec) and fluorescence-stained with 10 μM carboxyfluorescein succinimidyl ester (CFSE) for 10 minutes. After co-culture of CD8^+ T cells (1×10^5) and DCs (5×10^3) treated with OVA peptide at a ratio of 1:20 for 4 days, a proliferation level of T cells was measured in percentage of cells that are negative for CFSE fluorescence-staining.

[2] = tested on: bone marrow-derived dendritic cells; test: ELISA of TNF-α and IL-12p40 from LPS-stimulated bone marrow-derived dendritic cells; conditions: BMDC, 24 hours, LPS 1 μg/mL
Protocol: Mouse bone marrow-derived dendritic cells were obtained by differentiation from mouse bone marrow precursor cells. The femur and tibia of female C57BL/6 mouse were removed, and bone marrow was isolated using 10 mL of EDTA:BSS (Balanced Salt Solution) buffer containing 2% FBS. Red blood cells were removed with erythrocyte lysis buffer (Sigma-Aldrich), washed with EDTA:BSS buffer, followed by filtering cells using a 70 μm cell strainer (Falcon). Cells at 3×10^6/mL were dispensed in a 6-well plate, and interleukin-4 (20 ng/ml) (JW Creagene, Korea) and GM-CSF (20 ng/ml) (JW Creagene) were added and cultured for 7 days to induce differentiation. Differentiated dendritic cells were reacted with microbeads bound with CD11c antibody (eBioscience), was separated using CD11c Microbeads Ultrapure (MACS, Milteni Biotec), and then cultured.
In FIG. 19, when fibronectin was administered by concentration while culturing bone marrow-derived dendritic cells for 24 hours, it could be seen that the secretion of TNF-α and IL-12p40 by LPS (1 μg/mL) was inhibited from a concentration of 100 μg/mL. * indicates statistical significance as P<0.05 or less compared to 0 μg/mL concentration.

spleen dendritic cells = test: Viability of spleen dendritic cells by 7-AAD staining; conditions: 6 hours of culture
Protocol: Dendritic cells are characterized by rapid cell death during culture while self-activation occurs. In addition to the inhibition of self-activation, it was measured whether the viability of dendritic cells is changed. Cell viability was determined by staining of culturing cells with 7-AAD and measuring the number of cells not stained with the above fluorescent substance.

[3] = tested on: spleen dendritic cells and T cells; test: ELISA of cytokines after 4 days co-culture of spleen dendritic cells and allogeneic T cells; conditions: dendritic cells activated with LPS and poly (I:C), co-culture 4 days
Protocol: Since the main role of activated dendritic cells is to induce antigen-specific T-cell activation and proliferation according to the stimulatory properties, it was investigated whether self-activated dendrite cells after culturing and dendritic cells activated with LPS after culturing with addition of peptides can induce T cell proliferation by mixed lymphocyte reaction (MLR) test. The spleen dendritic cells isolated from C57B/L6 mice were self-activated for 24 hours, otherwise, when cultured with addition of peptides or fibronectin, the cells were treated with LPS and activated. Spleen T cells from Balb/c mice were isolated using a CD4^+/CD8^+ T cell isolation kit (Miltenyi Biotec, Bergisch-Gladbach, Germany) and MACS column (Miltenyi Biotec), followed by 10 μM CFSE staining (Molecular Probes; Thermo Fisher Scientific Inc., USA). The activated dendritic cells and CFSE-stained T cells were co-cultured at a ratio of 1:20 for 4 days, and the T cell proliferation level was measured as a percentage of cells with decreased CFSE. […] In FIG. 22, the amount of cytokines secreted after co-culture of spleen dendritic cells and T cells for 4 days was measured by ELISA method. […]

fibronectin
T cell proliferation (cells negative for CFSE) [1]: very weak ability to induce T cell proliferation | concentration from which the secretion of TNF-α and IL-12p40 by LPS was inhibited [2]: ≥ 100 µg/mL | number of 7-AAD-negative surviving cells (spleen dendritic cells): significantly increased | secretion of IFN-γ, IL-6, TNF-α and IL-5 [3]: extremely low

From patent US20240207308A1, “METHOD FOR CULTURING DENDRITIC CELLS” (NANOFAENTECH CO., LTD., priority 2021, published 2024)
